Reference: PubChem BioAssay AID1259407 (Chemical Carcinogenesis Research Information System (CCRIS), 2018)
Calls of active or inactive are those of the source. No rule for the calls is given here.

Tested on: CCRIS mutagenicity, Ames/micronucleus/aberration tests
Experiment: CCRIS mutagenicity studies
[1] = Test System: AMES SALMONELLA TYPHIMURIUM, Strain/Indicator: TA100, Metabolic Activation: NONE, Method: PREINCUBATION
[2] = Test System: AMES SALMONELLA TYPHIMURIUM, Strain/Indicator: TA98, Metabolic Activation: NONE, Method: STANDARD PLATE
[3] = Test System: AMES SALMONELLA TYPHIMURIUM, Strain/Indicator: TA100, Metabolic Activation: NONE, Method: STANDARD PLATE

SMILES: O=NN1CN2CN(C1)CN(N=O)C2
- mutagenic call (End Point: IN VITRO CHROMOSOMAL ABERRATIONS, Test System: CHL CELLS, Metabolic Activation: RAT, LIVER, S-9, SODIUM PHENOBARBITAL AND 5,6-BENZOFLAVONE): active; positive (structural and ploidy changes)
- mutagenic call (Test System: AMES SALMONELLA TYPHIMURIUM, Strain/Indicator: TA98, Metabolic Activation: NONE, Method: PREINCUBATION): inactive; negative
- mutagenic call (Test System: AMES SALMONELLA TYPHIMURIUM, Strain/Indicator: TA98, Metabolic Activation: RAT LIVER S-9, PHENOBARBITAL AND BETA-NAPHTHOFLAVONE, Method: PREINCUBATION): inactive; negative
- mutagenic call [1]: active; positive
- mutagenic call (Test System: AMES SALMONELLA TYPHIMURIUM, Strain/Indicator: TA100, Metabolic Activation: RAT LIVER S-9, PHENOBARBITAL AND BETA-NAPHTHOFLAVONE, Method: PREINCUBATION): active; positive
- mutagenic call (Test System: AMES SALMONELLA TYPHIMURIUM, Strain/Indicator: TA1535, Metabolic Activation: NONE, Method: PREINCUBATION): inactive; negative
- mutagenic call (Test System: AMES SALMONELLA TYPHIMURIUM, Strain/Indicator: TA1535, Metabolic Activation: RAT LIVER S-9, PHENOBARBITAL AND BETA-NAPHTHOFLAVONE, Method: PREINCUBATION): inactive; negative
- mutagenic call (Test System: AMES SALMONELLA TYPHIMURIUM, Strain/Indicator: TA1537, Metabolic Activation: NONE, Method: PREINCUBATION): inactive; negative
- mutagenic call (Test System: AMES SALMONELLA TYPHIMURIUM, Strain/Indicator: TA1537, Metabolic Activation: RAT LIVER S-9, PHENOBARBITAL AND BETA-NAPHTHOFLAVONE, Method: PREINCUBATION): inactive; negative
- mutagenic call (Test System: AMES SALMONELLA TYPHIMURIUM, Strain/Indicator: TA1538, Metabolic Activation: NONE, Method: PREINCUBATION): inactive; negative
- mutagenic call (Test System: AMES SALMONELLA TYPHIMURIUM, Strain/Indicator: TA1538, Metabolic Activation: RAT LIVER S-9, PHENOBARBITAL AND BETA-NAPHTHOFLAVONE, Method: PREINCUBATION): inactive; negative
- mutagenic call (Test System: E.COLI, Strain/Indicator: WP2UVRA, Metabolic Activation: NONE, Method: PREINCUBATION): inactive; negative
- mutagenic call (Test System: E.COLI, Strain/Indicator: WP2UVRA, Metabolic Activation: RAT LIVER S-9, PHENOBARBITAL AND BETA-NAPHTHOFLAVONE, Method: PREINCUBATION): active; positive

SMILES: c1ccc(C(c2ccccc2)c2ccccc2)cc1
- mutagenic call (Test System: AMES SALMONELLA TYPHIMURIUM, Strain/Indicator: TA97, Metabolic Activation: NONE, Method: STANDARD PLATE): inactive; negative
- mutagenic call (Test System: AMES SALMONELLA TYPHIMURIUM, Strain/Indicator: TA97, Metabolic Activation: RAT, LIVER, S-9, AROCLOR 1254, Method: STANDARD PLATE): inactive; negative
- mutagenic call [2]: inactive; negative
- mutagenic call (Test System: AMES SALMONELLA TYPHIMURIUM, Strain/Indicator: TA98, Metabolic Activation: RAT, LIVER, S-9, AROCLOR 1254, Method: STANDARD PLATE): inactive; negative
- mutagenic call [3]: inactive; negative
- mutagenic call (Test System: AMES SALMONELLA TYPHIMURIUM, Strain/Indicator: TA100, Metabolic Activation: RAT, LIVER, S-9, AROCLOR 1254, Method: STANDARD PLATE): inactive; negative
- mutagenic call (Test System: AMES SALMONELLA TYPHIMURIUM, Strain/Indicator: TA104, Metabolic Activation: NONE, Method: STANDARD PLATE): inactive; negative
- mutagenic call (Test System: AMES SALMONELLA TYPHIMURIUM, Strain/Indicator: TA104, Metabolic Activation: RAT, LIVER, S-9, AROCLOR 1254, Method: STANDARD PLATE): inactive; negative

SMILES: O=C(CBr)c1oc([N+](=O)[O-])c(-c2ccccc2)c1-c1ccccc1
- mutagenic call (Test System: AMES SALMONELLA TYPHIMURIUM, Strain/Indicator: TA98(NR), Metabolic Activation: NONE, Method: STANDARD PLATE): active; positive
- mutagenic call [2]: active; positive
- mutagenic call (Test System: AMES SALMONELLA TYPHIMURIUM, Strain/Indicator: TA100(NR), Metabolic Activation: NONE, Method: STANDARD PLATE): active; positive
- mutagenic call [3]: active; positive

SMILES: Cc1cc2ccccc2c2ccc3c(c12)[C@H](O)[C@@H](O)[C@H]1O[C@@H]31
- mutagenic call [1]: inactive; negative

SMILES: CCCCOc1c(C(=O)NOC(C)=O)cccc1[N+](=O)[O-]
- mutagenic call [3]: inactive; negative
- mutagenic call (Test System: AMES SALMONELLA TYPHIMURIUM, Strain/Indicator: TA100, Metabolic Activation: RAT, S-9, AROCLOR, Method: STANDARD PLATE): active; positive

SMILES: C[Si]1(C)O[Si](C)(C)O[Si](C)(C)O[Si](C)(C)O[Si](C)(C)O1
- mutagenic call [2]: inactive; negative
- mutagenic call (Test System: AMES SALMONELLA TYPHIMURIUM, Strain/Indicator: TA98, Metabolic Activation: RAT LIVER S-9, AROCLOR 1254, Method: STANDARD PLATE): inactive; negative
- mutagenic call [3]: inactive; negative
- mutagenic call (Test System: AMES SALMONELLA TYPHIMURIUM, Strain/Indicator: TA100, Metabolic Activation: RAT LIVER S-9, AROCLOR 1254, Method: STANDARD PLATE): inactive; negative
- mutagenic call (Test System: AMES SALMONELLA TYPHIMURIUM, Strain/Indicator: TA1535, Metabolic Activation: NONE, Method: STANDARD PLATE): inactive; negative
- mutagenic call (Test System: AMES SALMONELLA TYPHIMURIUM, Strain/Indicator: TA1535, Metabolic Activation: RAT LIVER S-9, AROCLOR 1254, Method: STANDARD PLATE): inactive; negative
- mutagenic call (Test System: AMES SALMONELLA TYPHIMURIUM, Strain/Indicator: TA1537, Metabolic Activation: NONE, Method: STANDARD PLATE): inactive; negative
- mutagenic call (Test System: AMES SALMONELLA TYPHIMURIUM, Strain/Indicator: TA1537, Metabolic Activation: RAT LIVER S-9, AROCLOR 1254, Method: STANDARD PLATE): inactive; negative
- mutagenic call (Test System: AMES SALMONELLA TYPHIMURIUM, Strain/Indicator: TA1538, Metabolic Activation: NONE, Method: STANDARD PLATE): inactive; negative
- mutagenic call (Test System: AMES SALMONELLA TYPHIMURIUM, Strain/Indicator: TA1538, Metabolic Activation: RAT LIVER S-9, AROCLOR 1254, Method: STANDARD PLATE): inactive; negative
- mutagenic call (Test System: E. COLI, Strain/Indicator: P3078 POLA, Metabolic Activation: NONE, Method: SPOT TEST): inactive; negative
- mutagenic call (Test System: E. COLI, Strain/Indicator: P3078 POLA, Metabolic Activation: RAT LIVER S-9, AROCLOR 1254, Method: SPOT TEST): inactive; negative
- mutagenic call (Test System: E. COLI, Strain/Indicator: W3110, Metabolic Activation: NONE, Method: SPOT TEST): inactive; negative
- mutagenic call (Test System: E. COLI, Strain/Indicator: W3110, Metabolic Activation: RAT LIVER S-9, AROCLOR 1254, Method: SPOT TEST): inactive; negative
- mutagenic call (Test System: MOUSE LYMPHOMA, Strain/Indicator: L5178Y (TK+/TK-), Metabolic Activation: NONE, Method: SUSPENSION/PLATE): inactive; negative
- mutagenic call (Test System: MOUSE LYMPHOMA, Strain/Indicator: L5178Y (TK+/TK-), Metabolic Activation: RAT, LIVER, S-9, Method: SUSPENSION/PLATE): inactive; negative
